The record followed here is patent US20230017045A1, “PYRIDINE AND PYRIMIDINE CARBOXYLATE HERBICIDES AND METHODS OF USE THEREOF” (Dow AgroSciences LLC, priority 2017, published 2023).

Where two headings read alike, the source gives them in different places.

The test system of this test is test plant species. Description: Post-emergent herbicidal activity test (greenhouse, foliar spray, visual growth reduction). The settings on record: post-emergence, 336 h, 140 g ai/ha. Type of test: in vivo. The method, boiled down: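 Scoring used a 0 to 100 percent visual scale of growth reduction against solvent-treated controls, read 14 d after spraying. Applications went onto plants at first or second true leaf stage, 187 L/ha, with crop oil concentrate and X-77 surfactant in the carrier. Post-treatment watering was by subirrigation to avoid wash-off.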

Setting [1] is: ECHCG: barnyardgrass (Echinochloa crus-galli), 14 days after application, read-out: Visual Growth Reduction (%) 14 Days After Application, ECHCG.
The mark [2] stands for this setting: IPOHE: ivy-leaf morning glory (Ipomoea hederacea), 14 days after application, read-out: Visual Growth Reduction (%) 14 Days After Application, IPOHE.
Setting [3] is: KCHSC: kochia (Bassia scoparia), 14 days after application, read-out: Visual Growth Reduction (%) 14 Days After Application, KCHSC.
Where [4] appears, read: ORYSA: rice (Oryza sativa), 14 days after application, read-out: Visual Growth Reduction (%) 14 Days After Application, ORYSA.
[5] abbreviates: SETFA: giant foxtail (Setaria faberi), 14 days after application, read-out: Visual Growth Reduction (%) 14 Days After Application, SETFA.
The mark [6] stands for this setting: SORVU: grain sorghum (Sorghum vulgare), 14 days after application, read-out: Visual Growth Reduction (%) 14 Days After Application, SORVU.
Setting [7] is: STEME: common chickweed (Stellaria media), 14 days after application, read-out: Visual Growth Reduction (%) 14 Days After Application, STEME.
The mark [8] stands for this setting: TRZAS: wheat, spring (Triticum aestivum), 14 days after application, read-out: Visual Growth Reduction (%) 14 Days After Application, TRZAS.
[9] abbreviates: blackgrass (Alopecurus myosuroides), 14 Days After Application, read-out: Visual Growth Reduction (%) ALOMY.
Setting [10] is: canada thistle (Cirsium arvense), 14 Days After Application, read-out: Visual Growth Reduction (%) CIRAR.
Where [11] appears, read: crabgrass (Digitaria sanguinalis), 14 Days After Application, read-out: Visual Growth Reduction (%) DIGSA.
Setting [12] is: lambsquarters (Chenopodium album), 14 Days After Application, read-out: Visual Growth Reduction (%) CHEAL.
The mark [13] stands for this setting: redroot pigweed (Amaranthus retroflexus), 14 Days After Application, read-out: Visual Growth Reduction (%) AMARE.
Setting [14] is: wild oat (Avena fatua), 14 Days After Application, read-out: Visual Growth Reduction (%) AVEFA.
Setting [15] is: yellow nutsedge (Cyperus esculentus), 14 Days After Application, read-out: Visual Growth Reduction (%) CYPES.

For `C=Cc1cc(-c2nc(C(=O)OC)c(Cl)cc2F)c(Cl)cc1C(F)(F)F` [F303, Methyl 3-chloro-6-(2-chloro-4-(trifluoromethyl)-5-vinylphenyl)-5-fluoropicolinate], the pest or weed control at 140 g/ha runs as follows: under setting [1], 0 to 29%; under setting [2], 95 to 100%; under setting [3], 0 to 29%; under setting [4], 0 to 29%; under setting [5], 0 to 29%; under setting [6], 0 to 29%. Moreover, the pest or weed control at 140 g/ha under setting [7] was 0 to 29%; the pest or weed control at 140 g/ha under setting [8] was 0 to 29%; the pest or weed control at 140 g/ha under setting [9] was in the range of 0 to 29%; the pest or weed control at 140 g/ha under setting [10] was in the range of 0 to 29%; the pest or weed control at 140 g/ha under setting [11] lay in the range of 0 to 29%; the pest or weed control at 140 g/ha under setting [12] is 75 to 84%. Also, the pest or weed control at 140 g/ha by setting is: under setting [13], 0 to 29%; under setting [14], 0 to 29%; under setting [15], 0 to 29%.

On to `COC(=O)c1nc(-c2ccc(C(F)(F)F)c(Cl)c2)ccc1Cl` [F304, Methyl 3-chloro-6-(3-chloro-4-(trifluoromethyl)phenyl)picolinate], for which the pest or weed control at 140 g/ha is 0 to 29% under setting [1]; 95 to 100% under setting [2]; 0 to 29% under setting [3]; 0 to 29% under setting [4]; 0 to 29% under setting [5]; 0 to 29% under setting [6]. For the same compound, the pest or weed control at 140 g/ha lay in the range of 0 to 29% under setting [7]; 0 to 29% under setting [8]; 0 to 29% under setting [9]; 0 to 29% under setting [10]; 30 to 44% under setting [11]; 0 to 29% under setting [12]. Moreover, the pest or weed control at 140 g/ha under setting [13] fell in the range of 0 to 29%, the pest or weed control at 140 g/ha under setting [14] is 0 to 29% and the pest or weed control at 140 g/ha under setting [15] lay within 0 to 29%.

For the compound `COC(=O)c1nc(-c2ccc(C(F)(F)F)c(Cl)c2)c(F)cc1Cl` [F305, Methyl 3-chloro-6-(3-chloro-4-(trifluoromethyl)phenyl)-5-fluoropicolinate], the pest or weed control at 140 g/ha runs as follows: under setting [1], 0 to 29%; under setting [2], 95 to 100%; under setting [3], 0 to 29%; under setting [4], 0 to 29%; under setting [5], 0 to 29%; under setting [6], 75 to 84%. Also, the pest or weed control at 140 g/ha under setting [7] was in the range of 0 to 29%; the pest or weed control at 140 g/ha under setting [8] lay in the range of 0 to 29%; the pest or weed control at 140 g/ha under setting [9] lay in the range of 0 to 29%; the pest or weed control at 140 g/ha under setting [10] lay in the range of 0 to 29%; the pest or weed control at 140 g/ha under setting [11] fell in the range of 85 to 94%; the pest or weed control at 140 g/ha under setting [12] lay in the range of 45 to 59%. The pest or weed control at 140 g/ha lay in the range of 30 to 44% under setting [13], 0 to 29% under setting [14] and 45 to 59% under setting [15].

For the compound `COC(=O)c1nc(-c2ccc(C(F)(F)F)c(F)c2)ccc1Cl` [F306, Methyl 3-chloro-6-(3-fluoro-4-(trifluoromethyl)phenyl)picolinate], the pest or weed control at 140 g/ha was 0 to 29% under setting [1]; 95 to 100% under setting [2]; 0 to 29% under setting [3]; 0 to 29% under setting [4]; 0 to 29% under setting [5]; 60 to 74% under setting [6]. The pest or weed control at 140 g/ha under setting [7] lay in the range of 0 to 29%; the pest or weed control at 140 g/ha under setting [8] lay within 0 to 29%; the pest or weed control at 140 g/ha under setting [9] was 0 to 29%; the pest or weed control at 140 g/ha under setting [10] lay in the range of 0 to 29%; the pest or weed control at 140 g/ha under setting [11] is 75 to 84%; the pest or weed control at 140 g/ha under setting [12] lay in the range of 0 to 29%. Moreover, the pest or weed control at 140 g/ha is 30 to 44% under setting [13], 0 to 29% under setting [14] and 45 to 59% under setting [15].

`COC(=O)c1nc(-c2ccc(C(F)(F)F)c(F)c2)c(F)cc1Cl` [F307, Methyl 3-chloro-5-fluoro-6-(3-fluoro-4-(trifluoromethyl)phenyl) picolinate]: the pest or weed control at 140 g/ha by setting is: under setting [1], 0 to 29%; under setting [2], 95 to 100%; under setting [3], 0 to 29%; under setting [4], 0 to 29%; under setting [5], 0 to 29%; under setting [6], 85 to 94%. In addition, the pest or weed control at 140 g/ha under setting [7] is 0 to 29%; the pest or weed control at 140 g/ha under setting [8] is 0 to 29%; the pest or weed control at 140 g/ha under setting [9] lay within 0 to 29%; the pest or weed control at 140 g/ha under setting [10] lay in the range of 0 to 29%; the pest or weed control at 140 g/ha under setting [11] was 85 to 94%; the pest or weed control at 140 g/ha under setting [12] was 75 to 84%. Besides, the pest or weed control at 140 g/ha reads like this: under setting [13], 75 to 84%; under setting [14], 0 to 29%; under setting [15], 0 to 29%.

On to `COC(=O)c1nc(-c2ccc(C(F)(F)F)c(C)c2)ccc1Cl` [F308, Methyl 3-chloro-6-(3-methyl-4-(trifluoromethyl)phenyl)picolinate], for which the pest or weed control at 140 g/ha runs as follows: under setting [1], 0 to 29%; under setting [2], 0 to 29%; under setting [3], 0 to 29%; under setting [4], 0 to 29%; under setting [5], 0 to 29%; under setting [6], 0 to 29%. Further, the pest or weed control at 140 g/ha under setting [7] was in the range of 0 to 29%; the pest or weed control at 140 g/ha under setting [8] was in the range of 0 to 29%; the pest or weed control at 140 g/ha under setting [9] was in the range of 0 to 29%; the pest or weed control at 140 g/ha under setting [10] fell in the range of 0 to 29%; the pest or weed control at 140 g/ha under setting [11] fell in the range of 0 to 29%; the pest or weed control at 140 g/ha under setting [12] was in the range of 0 to 29%. In addition, the pest or weed control at 140 g/ha reads like this: under setting [13], 45 to 59%; under setting [14], 0 to 29%; under setting [15], 0 to 29%.

Turning to `COC(=O)c1nc(-c2ccc(C(F)(F)F)c(C)c2)c(F)cc1Cl` [F309, Methyl 3-chloro-5-fluoro-6-(3-methyl-4-(trifluoromethyl)phenyl)picolinate], the pest or weed control at 140 g/ha under setting [1] is 0 to 29%; the pest or weed control at 140 g/ha under setting [2] was 0 to 29%; the pest or weed control at 140 g/ha under setting [3] was in the range of 0 to 29%; the pest or weed control at 140 g/ha under setting [4] lay in the range of 0 to 29%; the pest or weed control at 140 g/ha under setting [5] is 0 to 29%; the pest or weed control at 140 g/ha under setting [6] is 0 to 29%. Further, the pest or weed control at 140 g/ha runs as follows: under setting [7], 0 to 29%; under setting [8], 0 to 29%; under setting [9], 0 to 29%; under setting [10], 0 to 29%; under setting [11], 0 to 29%; under setting [12], 45 to 59%. In addition, the pest or weed control at 140 g/ha lay in the range of 45 to 59% under setting [13], 0 to 29% under setting [14] and 0 to 29% under setting [15].
